The text below walks through data of patent publication US10954232B2, “Pyrazole derivative as ALK5 inhibitor and uses thereof” (HANMI PHARMACEUTICAL CO., LTD., priority 2016, dated 2021).

The structures appear in SMILES notation.

This assay addresses T1, ALK5 kinase (Homo sapiens, UniProt P36897).
T1 construct: GST; purchased Thermo Fisher Scientific Solutions
T1 sequence (P36897 34-503): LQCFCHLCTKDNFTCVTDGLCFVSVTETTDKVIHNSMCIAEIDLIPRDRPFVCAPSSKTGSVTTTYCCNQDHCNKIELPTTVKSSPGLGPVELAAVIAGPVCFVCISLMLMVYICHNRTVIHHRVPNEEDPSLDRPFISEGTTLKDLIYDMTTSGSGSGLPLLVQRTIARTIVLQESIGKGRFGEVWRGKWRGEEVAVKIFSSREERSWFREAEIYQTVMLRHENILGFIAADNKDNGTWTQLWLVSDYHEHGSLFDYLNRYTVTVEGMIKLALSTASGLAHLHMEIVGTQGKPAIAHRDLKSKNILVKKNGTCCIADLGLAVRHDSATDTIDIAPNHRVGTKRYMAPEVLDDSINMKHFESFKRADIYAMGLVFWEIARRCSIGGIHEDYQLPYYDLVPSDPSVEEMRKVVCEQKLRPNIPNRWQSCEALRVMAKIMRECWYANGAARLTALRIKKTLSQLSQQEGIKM
Nature of the assay: Activity inhibition test on ALK5 enzyme (LanthaScreen Eu binding kinase assay). The settings on record: kinase tracer 178, 60 minutes at room temperature. How it is done: For each of the compounds obtained in Examples 1 to 227, inhibitory activity against ALK5 kinase was measured.
For this, a LanthaScreen Eu binding kinase assay method was used, and ALK5 kinase, a kinase buffer, a kinase tracer 178, and a LanthaScreen Eu-GST binding antibody were all purchased from Thermo Fisher Scientific Solutions. Each of the compounds was made into a 10 mM DMSO solution, and diluted by 1/10 to a concentration of 1 μM to 0.0001 μM with an aqueous solution containing 4% DMSO. The test was performed in 384 well plates (well polystyrene low volume round-bottomed plates). First, 5 μL of the diluted compound solution was added, then 5 μL of the kinase/antibody mixture solution was introduced thereto, and 5 μL of the tracer was introduced thereto. Herein, these were added to each well so that the final kinase concentration became 5 nM, the final Eu-GST binding antibody concentration 2 nM, and the kinase tracer 178 concentration 10 nM, and the result was reacted in a stirrer for 60 minutes at room temperature. Then a fluorescence value was measured using a fluorescence meter (molecular device) ([…], 665 nm emission filter). Herein, as for the degree of compound activity to inhibit the kinase reaction, a phosphorylate rate was calculated from 0% to 100% with respect to a control group according to the protocol included in the kit, and a 50% inhibitory concentration (IC50) value was calculated by obtaining the x-axis concentration in the region where 50% activity was inhibited.
As to `Cc1cccc(-n2nc(C(=O)Nc3ccc(N(C)CCN(C)C)cc3)cc2-c2ccc3ncsc3c2)n1` [Example 15, 5-(benzo[d]thiazol-6-yl)-N-(4-((2-(dimethylamino)ethyl)(methyl)amino)phenyl)-1-(6-methylpyridin-2-yl)-1H-pyrazole-3-carboxyamide], the IC50 stood at 6.4 nM. In other words, the single-digit nanomolar range.

The molecule `Cc1cccc(-n2nc(C(=O)Nc3ccccc3F)cc2-c2ccc3ncsc3c2)n1` [Example 27, 5-(benzo[d]thiazol-6-yl)-N-(2-fluorophenyl)-1-(6-methylpyridin-2-yl)-1H-pyrazole-3-carboxyamide] gave an IC50 of 6.2 nM.

For `Cc1cccc(-n2nc(C(=O)Nc3ccccc3F)cc2-c2ccnc3ccccc23)n1` [Example 209, N-(2-fluorophenyl)-1-(6-methylpyridin-2-yl)-5-(quinolin-4-yl)-1H-pyrazole-3-carboxyamide], the IC50 is greater than 100 nM.

For the molecule `Cc1cccc(-n2nc(C(=O)NCc3cccc(Cl)c3)cc2-c2ccc3nccnc3c2)n1` [Example 200, N-(3-chlorobenzyl)-1-(6-methylpyridin-2-yl)-5-(quinoxalin-6-yl)-1H-pyrazole-3-carboxyamide], the IC50 lay within 10 to 100 nM. In the case of `Cc1cccc(-n2nc(C(=O)Nc3nccs3)cc2-c2ccc3ncsc3c2)n1` [Example 75, 5-(benzo[d]thiazol-6-yl)-1-(6-methylpyridin-2-yl)-N-(thiazol-2-yl)-1H-pyrazole-3-carboxyamide] it was 7.4 nM.

`Cc1cccc(-n2nc(C(=O)Nc3cccc([S+](C)[O-])c3)cc2-c2ccc3ncnn3c2)n1` (stereo not drawn) [Example 145, 5-([1,2,4]triazolo[1,5-α]pyridin-6-yl)-N-(3-(methylsulfinyl)phenyl)-1-(6-methylpyridin-2-yl)-1H-pyrazole-3-carboxyamide] came in with an IC50 of 15 nM. `Cc1cccc(-n2nc(C(=O)NC3CC3)cc2-c2ccc(F)c(-c3cnn(CCO)c3)c2)n1` [Example 221, N-cyclopropyl-5-(4-fluoro-3-(1-(2-hydroxyethyl)-1H-pyrazol-4-yl)phenyl)-1-(6-methylpyridin-2-yl)-1H-pyrazole-3-carboxyamide]: the half-inhibitory concentration (IC50) came out at 4.3 nM. This IC50 is about 3.5-fold lower than that of the molecule before. `Cc1cccc(-n2nc(C(=O)Nc3cccc(O)c3)cc2-c2ccc3ncsc3c2)n1` [Example 82, 5-(benzo[d]thiazol-6-yl)-N-(3-hydroxyphenyl)-1-(6-methylpyridin-2-yl)-1H-pyrazole-3-carboxyamide] yielded an IC50 of 2.7 nM. `Cc1cccc(-n2nc(C(=O)Nc3ccccc3)cc2-c2ccc3ncsc3c2)n1` [Example 18, 5-(benzo[d]thiazol-6-yl)-1-(6-methylpyridin-2-yl)-N-phenyl-1H-pyrazole-3-carboxyamide] came in with an IC50 of 10 to 100 nM. In the case of `CCOc1ccc(NC(=O)c2cc(-c3ccc4ncsc4c3)n(-c3cccc(C)n3)n2)cc1` [Example 2, 5-(benzo[d]thiazol-6-yl)-N-(4-ethoxyphenyl)-1-(6-methylpyridin-2-yl)-1H-pyrazole-3-carboxyamide] it was 4.7 nM; in that of `COc1ccc(NC(=O)c2cc(-c3ccnc4ccccc34)n(-c3cccc(C)n3)n2)cc1F` [Example 215, N-(3-fluoro-4-methoxyphenyl)-1-(6-methylpyridin-2-yl)-5-(quinolin-4-yl)-1H-pyrazole-3-carboxyamide], 91 nM; in that of `Cc1cccc(-n2nc(C(=O)Nc3cnn(S(=O)(=O)C4CC4)c3)cc2-c2ccc3ncsc3c2)n1` [Example 81, 5-(benzo[d]thiazol-6-yl)-N-(1-(cyclopropylsulfonyl)-1H-pyrazol-4-yl)-1-(6-methylpyridin-2-yl)-1H-pyrazole-3-carboxyamide], 1.5 nM. `Cc1cccc(-n2nc(C(=O)Nc3cccc(S(C)(=O)=O)n3)cc2-c2ccc3ncsc3c2)n1` [Example 68, 5-(benzo[d]thiazol-6-yl)-1-(6-methylpyridin-2-yl)-N-(6-(methylsulfonyl)pyridin-2-yl)-1H-pyrazole-3-carboxyamide] came in with an IC50 of 65 nM. In the case of `COc1cccc(NC(=O)c2cc(-c3ccc4nccnc4c3)n(-c3cccc(C)n3)n2)c1` [Example 165, N-(3-methoxyphenyl)-1-(6-methylpyridin-2-yl)-5-(quinoxalin-6-yl)-1H-pyrazole-3-carboxyamide] it was 24 nM.

`Cc1cccc(-n2nc(C(=O)Nc3ccc(O)cc3)cc2-c2ccc3ncsc3c2)n1` [Example 83, 5-(benzo[d]thiazol-6-yl)-N-(4-hydroxyphenyl)-1-(6-methylpyridin-2-yl)-1H-pyrazole-3-carboxyamide] yielded an IC50 of 0.7 nM. In turn, `COc1ccccc1NC(=O)c1cc(-c2ccc3nccnc3c2)n(-c2cccc(C)n2)n1` [Example 166, N-(2-methoxyphenyl)-1-(6-methylpyridin-2-yl)-5-(quinoxalin-6-yl)-1H-pyrazole-3-carboxyamide] had an IC50 of roughly 100 nM. `COc1ccc(NC(=O)c2cc(-c3ccc4nccnc4c3)n(-c3cc(Cl)ccc3F)n2)cc1` [Example 203, 1-(5-chloro-2-fluorophenyl)-N-(4-methoxyphenyl)-5-(quinoxalin-6-yl)-1H-pyrazole-3-carboxyamide] registered an IC50 greater than 100 nM. In the case of `CSc1ccc(NC(=O)c2cc(-c3ccc4ncsc4c3)n(-c3cccc(C)n3)n2)cn1` [Example 67, 5-(benzo[d]thiazol-6-yl)-N-(6-(methylthio)pyridin-3-yl)-1-(6-methylpyridin-2-yl)-1H-pyrazole-3-carboxyamide] it was 9.6 nM. In the case of `Cc1cccc(-n2nc(C(=O)Nc3ccc(S(=O)(=O)O)cc3)cc2-c2ccc3ncsc3c2)n1` [Example 56, 4-(5-(benzo[d]thiazol-6-yl)-1-(6-methylpyridin-2-yl)-1H-pyrazole-3-carboxyamido)benzenesulfonic acid] it was 2.4 nM.

`Cc1cccc(-n2nc(C(=O)Nc3ccncc3)cc2-c2ccc3ncsc3c2)n1` [Example 64, 5-(benzo[d]thiazol-6-yl)-1-(6-methylpyridin-2-yl)-N-(pyridin-4-yl)-1H-pyrazole-3-carboxyamide] yielded an IC50 of less than 10 nM. Consider `CC(=O)Nc1ccc(NC(=O)c2cc(-c3ccc4ncnn4c3)n(-c3cccc(C)n3)n2)cc1` [Example 110, 5-([1,2,4]triazolo[1,5-α]pyridin-6-yl)-N-(4-acetamidophenyl)-1-(6-methylpyridin-2-yl)-1H-pyrazole-3-carboxyamide], for which the 50% inhibitory concentration (IC50) fell in the range of 10 to 100 nM. In the case of `COc1ccc(NC(=O)c2cc(-c3ccc4ncsc4c3)n(-c3cccc(C)n3)n2)c(F)c1` [Example 9, 5-(benzo[d]thiazol-6-yl)-N-(2-fluoro-4-methoxyphenyl)-1-(6-methylpyridin-2-yl)-1H-pyrazole-3-carboxyamide] it was 19 nM; in that of `Cc1cccc(-n2nc(C(=O)Nc3cccc(Cl)c3F)cc2-c2ccc3ncnn3c2)n1` [Example 138, 5-([1,2,4]triazolo[1,5-α]pyridin-6-yl)-N-(3-chloro-2-fluorophenyl)-1-(6-methylpyridin-2-yl)-1H-pyrazole-3-carboxyamide], 10 to 100 nM. `Cc1cccc(-n2nc(C(=O)Nc3ccc(Cl)nc3)cc2-c2ccnc3ccccc23)n1` [Example 213, N-(6-chloropyridin-3-yl)-1-(6-methylpyridin-2-yl)-5-(quinolin-4-yl)-1H-pyrazole-3-carboxyamide]: the IC50 stood at 23 nM.

On to `Cc1cccc(-n2nc(C(=O)Nc3cccc(NS(C)(=O)=O)c3)cc2-c2ccc3ncsc3c2)n1` [Example 53, 5-(benzo[d]thiazol-6-yl)-1-(6-methylpyridin-2-yl)-N-(3-(methylsulfonamido)phenyl)-1H-pyrazole-3-carboxyamide], for which the concentration for half-maximal inhibition (IC50) is 2.4 nM.

Molecule `COc1ccccc1NC(=O)c1cc(-c2ccc3ncnn3c2)n(-c2cccc(C)n2)n1` [Example 92, 5-([1,2,4]triazolo[1,5-α]pyridin-6-yl)-N-(2-methoxyphenyl)-1-(6-methylpyridin-2-yl)-1H-pyrazole-3-carboxyamide] showed an IC50 of 10 to 100 nM. In the case of `Cc1cccc(-n2nc(C(=O)Nc3cccc(CS(N)(=O)=O)c3)cc2-c2ccc3ncsc3c2)n1` [Example 60, 5-(benzo[d]thiazol-6-yl)-1-(6-methylpyridin-2-yl)-N-(3-(sulfamoylmethyl)phenyl)-1H-pyrazole-3-carboxyamide] it was 13 nM; in that of `Cc1cccc(-n2nc(C(=O)Nc3ccc(N(C)C)cc3)cc2-c2ccc3ncnn3c2)n1` [Example 104, 5-([1,2,4]triazolo[1,5-α]pyridin-6-yl)-N-(4-(dimethylamino)phenyl)-1-(6-methylpyridin-2-yl)-1-H-pyrazole-3-carboxyamide], 7 nM.
